From patent publication US12410187B2, “Fused tricyclic compounds useful as anticancer agents” (ASTRAZENECA AB, priority 2019, dated 2025)
pIC50: −log10 of the molar value. Where two headings read alike, the source gives them in different places.

Key:
[1] = molecular target: T1, KRasG12C (Homo sapiens, UniProt P01116, G12C); experiment: KRasG12C mass spectrometry adducting assay; type: binding; details: test compound final concentration 10 μM, 4 hours reaction with 4 μM GDP loaded biotinylated KRasG12C
T1 construct: biotin (biotinylated); made in house
T1 sequence (P01116 1-188 isoform P01116-2 G12C): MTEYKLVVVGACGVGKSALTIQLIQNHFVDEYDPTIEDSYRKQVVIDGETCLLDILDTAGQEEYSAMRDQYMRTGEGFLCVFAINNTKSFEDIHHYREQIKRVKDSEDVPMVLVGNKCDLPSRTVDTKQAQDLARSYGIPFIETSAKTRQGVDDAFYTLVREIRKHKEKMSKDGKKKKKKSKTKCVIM
Procedure: Enzyme solutions were prepared in assay buffer containing 20 mM HEPES (pH 7.5), 5 mM MgCl2, and 150 mM NaCl. […] The plate was sealed before reading on a Xevo G2 QTOF (Waters) and Acquity LC system (Waters). 10 μl of sample was injected onto a Xbridge BEH300; C4; 3.5 um; 2.1×50 mm column (Waters) running a 3 minute gradient. Blank samples were run in between each test sample.
Data was analysed in Mass Lynx software (Waters), the Total ion count (TIC) trace was used and the eluted protein peak data combined. Using the combined spectrum the data was deconvoluted using MaxEnt1 method. The peak area for apo-protein KRas^G12C (APO) and KRAS+relative cmpd mass (adduct) were measured, and a percentage adduct was calculated using the following calculation: Percent adduct=100*(area of adduct peak/(sum of APO+adduct peaks).
The data from this mass spectrometry adducing assay is presented in the column labelled KRasG12C M.S. Binding Mean adduct % in Table A below.

[2] = molecular target: T1, KRasG12C; experiment: KRasG12C functional assay (HTRF/FRET nucleotide exchange and Raf RBD binding); type: biochemical; details: samples incubated for 4 hrs, FRET readout, single experiment or average of two or more
Procedure: All enzyme and substrate solutions were prepared in assay buffer containing 20 mM HEPES (pH 7.5), 5 mM MgCl2, 150 mM NaCl, and 0.01% Tween 20. […] In a separate mix 20 nM GST-Raf Ras binding domain (GST-Raf RBD, purified in house) and 4 μg/ml anti-GST XL665 antibody (Cisbio) was prepared in assay buffer containing 50 mM Potassium Fluoride and 0.05 mg/ml BSA and equilibrated for 4 hours before adding 0.6 μM Guanosine 5′-[γ-thio]triphosphate (GTPγS, Sigma) and 0.08 μM SOS (purified in house). 5 μl of the GST-RAF RBD mix was then dispensed into each well of the assay plate. […] This is detected simultaneously via the specific binding interaction between active GTPγS KRas^G12C with GST-Raf RBD which brings the europium and XL665 into close proximity enabling an increased FRET signal to be detected on a Pherastar (BMG) plate reader equipped with the HTRF filter module. […] IC50 values were calculated from normalised dose-response response FRET data curve fitted in Genedata screener (Basel, Switzerland).

[3] = tested on: MDR1 (Pgp) and BCRP; experiment: Blood brain barrier penetrant assessment: efflux ratio in MDCK_MDR1_BCRP cells; type: in vitro ADME; details: human, MDCK cells doubly transfected with MDR1 (Pgp) and BCRP, ratio of 2 or less = potential for good BBB penetration, read-out: Hu MDCK-MDR1-BCRP (0.1 uM) Mean Efflux Ratio
Procedure: In order to evaluate blood brain barrier (BBB) penetrant properties the efflux properties of compounds according to the specification was measured in cells transfected with the major efflux pumps expressed in the endothelial cells of the BBB. The assessment of efflux properties was performed using Madin-Darby Canine Kidney (MDCK) cells doubly transfected with MDR1 (Pgp) and BCRP. The transfected cell line, MDCK_MDR1_BCRP, thus expresses the two main efflux pumps that actively serve to exclude transit of compounds across the BBB and the efflux ration from these cell can be measured as described in the literature (Durant et al, Sci. Adv. 2018; eeat:1719). A compound that has an efflux ratio of 2 or less as measured by this technique is identified as having the potential for good BBB penetrant properties (Colclough et al, Drug Disc. Today 2019; 24(5), 1067-73).

[4] = KRasG12C functional assay IC50, GDP loaded biotinylated KRasG12C
[5] = GDP loaded biotinylated KRasG12C, read-out: KRasG12C functional assay IC50

Row | KRasG12C M.S. Binding Mean adduct % [1] [%] | pIC50 [2, 4] | efflux ratio at 0.1 uM [3] | pIC50 [2, 5] | SMILES
1 | 80 | 5.85 |  |  | C=CC(=O)N1CCN2Cc3ccc(-c4c(C)ccc5[nH]ncc45)c(Cl)c3OC[C@@H]2C1 (single isomer, unassigned) [Example 3]
2 | 0 | 4.13 | 0.9 |  | C=CC(=O)N1CCN2Cc3ccc(-c4c(C)ccc5[nH]ncc45)c(Cl)c3OC[C@@H]2C1 (single isomer, unassigned) [Example 4]
3 | 91 | 6.16 |  |  | C=CC(=O)N1CCN2C(=O)c3ccc(-c4c(C)ccc5[nH]ncc45)c(Cl)c3OC[C@H]2C1 (single isomer, unassigned) [Example 8]
4 | 97 | 6.48 |  |  | C=CC(=O)N1CCN2Cc3ccc(-c4c(C)ccc5[nH]ncc45)c(Cl)c3OC[C@H]2C1 (single isomer, unassigned) [Example 10]
5 | 12 | 5.58 |  |  | C=CC(=O)N1CCN2Cc3cc(F)c(-c4c(O)cccc4Cl)c(F)c3OC[C@H]2C1 (single isomer, unassigned) [Example 42]
6 | 95 | 7.48 | 0.7 |  | C=CC(=O)N1CCN2Cc3cc(F)c(-c4c(O)cccc4Cl)c(F)c3OC[C@H]2C1 (single isomer, unassigned) [Example 43]
7 | 97 | 7.18 | 1.3 |  | C=CC(=O)N1CCN2Cc3cc(F)c(-c4c(C)cccc4O)c(F)c3OC[C@H]2C1 (single isomer, unassigned) [Example 45]
8 |  |  | 0.9 | 7.85 | C=CC(=O)N1CCN2Cc3cc(C#CC)c(-c4c(O)cccc4Cl)c(Cl)c3OC[C@H]2C1 (single isomer, unassigned) [Example 109]
9 |  |  | 1.5 | 7.36 | [2H]C([2H])([2H])Oc1nc2c(c(Cl)c1-c1c(O)cccc1Cl)OC[C@H]1CN(C(=O)C=C)CCN1C2 (single isomer, unassigned) [Example 112]
10 |  |  | 0.7 | 7.71 | C#Cc1cc2c(c(Cl)c1-c1c(O)cccc1Cl)OC[C@H]1CN(C(=O)C=C)CCN1C2 [Example 78, 1-[(12aR)-10-Chloro-9-(2-chloro-6-hydroxyphenyl)-8-ethynyl-3,4,12,12a-tetrahydro-6H-pyrazino[2,1-c][1,4]benzoxazepin-2(1H)-yl]prop-2-en-1-one]
